# Experiments:
# Test in all cases: biochemical binding or enzymatic assay
# [1] = molecular target: T1, AXL (Homo sapiens, UniProt P30530); details: Novartis
# T1 construct: purchased DiscoveRx KINOMEscan
# Protocol: (§1) Finally, the selectivity profile of i-CDK9 toward other non-CDK kinases was also assessed using the KINOMEscan platform. […] Except for CLK4, for which no suitable assay was available, the rest of the kinases plus a selected group of others were re-examined for the concentration-dependent effect of i-CDK9 in either functional kinase assays or binding assays. […] Indeed, it has recently been reported that DYRK1A acts as a Pol II CTD Kinase at its target gene promoters ([Di Vona et al., 2015]).
# [2] = molecular target: T2, DYRK2 (Homo sapiens, UniProt Q92630); details: Millipore
# T2 construct: purchased DiscoveRx KINOMEscan
# T2 sequence (Q92630 1-601): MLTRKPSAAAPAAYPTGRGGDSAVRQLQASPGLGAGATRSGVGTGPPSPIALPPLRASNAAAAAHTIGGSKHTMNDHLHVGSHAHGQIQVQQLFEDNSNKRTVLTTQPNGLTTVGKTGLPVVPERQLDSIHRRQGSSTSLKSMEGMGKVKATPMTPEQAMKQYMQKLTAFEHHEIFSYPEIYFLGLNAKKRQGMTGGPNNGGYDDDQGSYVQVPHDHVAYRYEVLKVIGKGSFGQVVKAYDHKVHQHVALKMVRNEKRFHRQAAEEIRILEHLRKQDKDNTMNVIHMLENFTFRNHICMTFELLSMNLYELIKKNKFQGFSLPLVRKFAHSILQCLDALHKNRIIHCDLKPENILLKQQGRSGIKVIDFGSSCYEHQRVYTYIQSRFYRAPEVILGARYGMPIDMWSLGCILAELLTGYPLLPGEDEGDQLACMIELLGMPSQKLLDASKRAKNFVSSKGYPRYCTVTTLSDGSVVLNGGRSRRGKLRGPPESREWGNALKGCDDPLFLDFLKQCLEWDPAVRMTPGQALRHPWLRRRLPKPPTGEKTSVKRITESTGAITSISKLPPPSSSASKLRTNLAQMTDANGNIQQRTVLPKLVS
# Protocol: as §1
# [3] = molecular target: T3, FGFR2 (Homo sapiens, UniProt P21802); details: Novartis
# T3 construct: purchased DiscoveRx KINOMEscan
# T3 sequence (P21802 22-821): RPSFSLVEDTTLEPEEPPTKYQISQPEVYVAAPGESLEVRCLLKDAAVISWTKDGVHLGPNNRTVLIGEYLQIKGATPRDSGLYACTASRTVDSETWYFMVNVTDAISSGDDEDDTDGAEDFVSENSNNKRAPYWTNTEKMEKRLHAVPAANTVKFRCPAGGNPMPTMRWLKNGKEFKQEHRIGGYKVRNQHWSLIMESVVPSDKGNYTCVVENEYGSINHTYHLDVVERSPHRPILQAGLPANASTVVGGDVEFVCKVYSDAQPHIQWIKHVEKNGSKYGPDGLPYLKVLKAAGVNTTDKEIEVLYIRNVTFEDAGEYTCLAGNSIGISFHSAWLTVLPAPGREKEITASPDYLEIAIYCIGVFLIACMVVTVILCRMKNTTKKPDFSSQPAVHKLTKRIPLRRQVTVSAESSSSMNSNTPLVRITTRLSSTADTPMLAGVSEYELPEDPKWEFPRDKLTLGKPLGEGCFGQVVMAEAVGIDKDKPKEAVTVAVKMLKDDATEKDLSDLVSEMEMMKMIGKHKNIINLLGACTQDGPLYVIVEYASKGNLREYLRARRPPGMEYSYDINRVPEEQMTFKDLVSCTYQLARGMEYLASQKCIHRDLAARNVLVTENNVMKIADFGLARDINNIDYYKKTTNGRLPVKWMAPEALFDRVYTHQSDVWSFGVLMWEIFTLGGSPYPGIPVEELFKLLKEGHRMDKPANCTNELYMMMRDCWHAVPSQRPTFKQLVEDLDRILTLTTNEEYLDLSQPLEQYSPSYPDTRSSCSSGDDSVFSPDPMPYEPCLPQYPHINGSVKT
# Protocol: as §1
# [4] = molecular target: T4, IGF1R (Homo sapiens, UniProt P08069); details: Novartis
# T4 construct: purchased DiscoveRx KINOMEscan
# T4 sequence (P08069 31-1367): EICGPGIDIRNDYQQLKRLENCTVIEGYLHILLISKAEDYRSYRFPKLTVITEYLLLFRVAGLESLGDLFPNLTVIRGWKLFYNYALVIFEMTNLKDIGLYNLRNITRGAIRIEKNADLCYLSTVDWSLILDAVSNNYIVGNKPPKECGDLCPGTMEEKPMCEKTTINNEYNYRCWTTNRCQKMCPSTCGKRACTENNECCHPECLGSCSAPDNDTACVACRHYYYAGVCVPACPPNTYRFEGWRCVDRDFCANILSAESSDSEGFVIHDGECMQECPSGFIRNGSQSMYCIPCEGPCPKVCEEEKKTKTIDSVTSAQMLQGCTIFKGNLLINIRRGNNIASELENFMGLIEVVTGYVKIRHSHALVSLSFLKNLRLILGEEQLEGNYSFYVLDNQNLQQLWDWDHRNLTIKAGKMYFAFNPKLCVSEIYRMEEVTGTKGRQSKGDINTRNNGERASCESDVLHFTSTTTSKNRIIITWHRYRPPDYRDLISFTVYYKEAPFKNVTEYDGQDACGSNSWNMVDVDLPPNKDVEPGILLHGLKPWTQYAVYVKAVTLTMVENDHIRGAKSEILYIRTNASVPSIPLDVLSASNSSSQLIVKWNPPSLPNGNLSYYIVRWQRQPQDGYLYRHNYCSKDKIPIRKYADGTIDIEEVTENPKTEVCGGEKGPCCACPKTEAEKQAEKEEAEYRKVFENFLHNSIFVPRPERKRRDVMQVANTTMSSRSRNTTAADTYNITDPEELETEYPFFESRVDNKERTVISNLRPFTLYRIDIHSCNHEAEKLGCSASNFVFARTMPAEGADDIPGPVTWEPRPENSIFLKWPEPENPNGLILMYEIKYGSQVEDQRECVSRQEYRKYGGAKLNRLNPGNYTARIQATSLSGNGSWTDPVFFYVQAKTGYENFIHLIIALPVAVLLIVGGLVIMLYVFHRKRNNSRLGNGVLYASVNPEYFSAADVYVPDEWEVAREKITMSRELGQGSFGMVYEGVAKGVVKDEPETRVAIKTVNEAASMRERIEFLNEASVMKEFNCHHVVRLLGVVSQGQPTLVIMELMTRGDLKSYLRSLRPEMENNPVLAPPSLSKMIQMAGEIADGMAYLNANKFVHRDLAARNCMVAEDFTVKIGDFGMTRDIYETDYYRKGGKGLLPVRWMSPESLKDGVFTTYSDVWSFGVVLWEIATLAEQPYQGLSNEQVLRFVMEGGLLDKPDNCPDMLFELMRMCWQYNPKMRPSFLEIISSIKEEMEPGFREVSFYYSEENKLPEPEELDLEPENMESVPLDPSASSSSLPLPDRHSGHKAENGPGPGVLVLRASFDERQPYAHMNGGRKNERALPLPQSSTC
# Protocol: as §1
# [5] = molecular target: T5, MAPKAPK5 (Homo sapiens, UniProt Q8IW41); details: Novartis
# T5 construct: purchased DiscoveRx KINOMEscan
# T5 sequence (Q8IW41 1-473): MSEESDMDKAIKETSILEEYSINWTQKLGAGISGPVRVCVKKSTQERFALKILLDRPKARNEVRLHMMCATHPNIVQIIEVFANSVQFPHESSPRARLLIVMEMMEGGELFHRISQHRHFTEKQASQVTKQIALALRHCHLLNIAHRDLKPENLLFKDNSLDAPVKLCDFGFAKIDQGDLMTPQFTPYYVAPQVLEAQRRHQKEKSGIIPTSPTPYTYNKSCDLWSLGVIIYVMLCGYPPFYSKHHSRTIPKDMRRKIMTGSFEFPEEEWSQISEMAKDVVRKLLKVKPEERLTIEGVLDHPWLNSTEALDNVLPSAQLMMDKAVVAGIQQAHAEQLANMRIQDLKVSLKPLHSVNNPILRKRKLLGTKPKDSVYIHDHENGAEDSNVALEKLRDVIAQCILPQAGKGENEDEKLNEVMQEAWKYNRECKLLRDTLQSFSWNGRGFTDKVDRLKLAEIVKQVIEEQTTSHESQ
# Protocol: as §1
# [6] = molecular target: T6, PIM2 (Homo sapiens, UniProt Q9P1W9); details: Novartis
# T6 construct: purchased DiscoveRx KINOMEscan
# T6 sequence (Q9P1W9 whole entry): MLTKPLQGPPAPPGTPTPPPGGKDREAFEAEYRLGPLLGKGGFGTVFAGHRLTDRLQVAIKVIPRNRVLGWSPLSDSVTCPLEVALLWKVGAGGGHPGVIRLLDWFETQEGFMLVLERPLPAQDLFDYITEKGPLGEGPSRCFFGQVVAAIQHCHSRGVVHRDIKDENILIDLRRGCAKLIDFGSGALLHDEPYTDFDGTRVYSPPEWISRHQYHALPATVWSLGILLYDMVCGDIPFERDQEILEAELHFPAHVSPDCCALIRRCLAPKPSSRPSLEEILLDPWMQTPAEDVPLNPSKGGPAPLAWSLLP
# Protocol: as §1
# [7] = molecular target: T7, PLK1 (Homo sapiens, UniProt P53350); details: Novartis
# T7 construct: purchased DiscoveRx KINOMEscan
# T7 sequence (P53350 whole entry): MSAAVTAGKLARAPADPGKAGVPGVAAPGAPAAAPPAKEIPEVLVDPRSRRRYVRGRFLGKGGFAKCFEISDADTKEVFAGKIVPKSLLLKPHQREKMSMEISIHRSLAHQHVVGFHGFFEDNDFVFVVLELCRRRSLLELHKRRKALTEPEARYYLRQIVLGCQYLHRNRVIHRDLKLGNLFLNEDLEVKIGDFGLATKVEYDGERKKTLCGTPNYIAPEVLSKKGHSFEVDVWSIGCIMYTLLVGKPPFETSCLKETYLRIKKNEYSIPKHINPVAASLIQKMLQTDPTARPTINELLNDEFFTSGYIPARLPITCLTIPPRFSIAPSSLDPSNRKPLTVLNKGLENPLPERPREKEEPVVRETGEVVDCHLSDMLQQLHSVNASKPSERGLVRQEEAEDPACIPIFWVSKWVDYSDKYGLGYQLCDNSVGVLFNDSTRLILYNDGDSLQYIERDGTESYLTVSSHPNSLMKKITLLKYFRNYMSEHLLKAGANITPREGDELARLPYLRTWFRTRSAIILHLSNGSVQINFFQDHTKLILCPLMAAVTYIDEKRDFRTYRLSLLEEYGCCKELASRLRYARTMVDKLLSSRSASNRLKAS
# Protocol: as §1
# [8] = molecular target: T8, TAOK3 (Homo sapiens, UniProt Q9H2K8); details: Millipore
# T8 construct: purchased DiscoveRx KINOMEscan
# T8 sequence (Q9H2K8 1-898): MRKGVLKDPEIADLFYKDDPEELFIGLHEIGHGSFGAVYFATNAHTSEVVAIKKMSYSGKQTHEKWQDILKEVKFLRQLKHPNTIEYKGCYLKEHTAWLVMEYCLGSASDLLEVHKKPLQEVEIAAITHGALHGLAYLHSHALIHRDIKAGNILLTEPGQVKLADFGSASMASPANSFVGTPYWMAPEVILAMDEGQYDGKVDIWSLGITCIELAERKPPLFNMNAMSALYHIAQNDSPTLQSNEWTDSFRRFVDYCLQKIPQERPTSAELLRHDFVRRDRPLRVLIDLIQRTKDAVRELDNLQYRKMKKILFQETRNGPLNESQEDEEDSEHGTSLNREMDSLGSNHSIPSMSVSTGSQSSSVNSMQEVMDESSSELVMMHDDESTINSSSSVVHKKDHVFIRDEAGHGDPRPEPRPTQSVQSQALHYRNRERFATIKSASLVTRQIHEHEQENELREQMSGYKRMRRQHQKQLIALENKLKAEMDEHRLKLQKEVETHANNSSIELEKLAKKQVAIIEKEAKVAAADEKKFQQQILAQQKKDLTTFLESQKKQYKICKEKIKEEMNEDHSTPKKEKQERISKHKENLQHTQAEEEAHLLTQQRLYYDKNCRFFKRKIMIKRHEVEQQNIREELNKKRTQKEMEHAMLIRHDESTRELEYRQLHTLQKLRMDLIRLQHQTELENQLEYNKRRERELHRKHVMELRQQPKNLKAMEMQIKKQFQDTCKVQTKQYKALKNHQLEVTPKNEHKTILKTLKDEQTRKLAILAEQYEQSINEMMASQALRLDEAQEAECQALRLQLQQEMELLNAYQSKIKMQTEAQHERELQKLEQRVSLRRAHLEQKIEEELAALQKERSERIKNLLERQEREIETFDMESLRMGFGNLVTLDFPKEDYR
# Protocol: as §1
# [9] = molecular target: T9, YES (Homo sapiens, UniProt P07947); details: Novartis
# T9 construct: purchased DiscoveRx KINOMEscan
# T9 sequence (P07947 whole entry): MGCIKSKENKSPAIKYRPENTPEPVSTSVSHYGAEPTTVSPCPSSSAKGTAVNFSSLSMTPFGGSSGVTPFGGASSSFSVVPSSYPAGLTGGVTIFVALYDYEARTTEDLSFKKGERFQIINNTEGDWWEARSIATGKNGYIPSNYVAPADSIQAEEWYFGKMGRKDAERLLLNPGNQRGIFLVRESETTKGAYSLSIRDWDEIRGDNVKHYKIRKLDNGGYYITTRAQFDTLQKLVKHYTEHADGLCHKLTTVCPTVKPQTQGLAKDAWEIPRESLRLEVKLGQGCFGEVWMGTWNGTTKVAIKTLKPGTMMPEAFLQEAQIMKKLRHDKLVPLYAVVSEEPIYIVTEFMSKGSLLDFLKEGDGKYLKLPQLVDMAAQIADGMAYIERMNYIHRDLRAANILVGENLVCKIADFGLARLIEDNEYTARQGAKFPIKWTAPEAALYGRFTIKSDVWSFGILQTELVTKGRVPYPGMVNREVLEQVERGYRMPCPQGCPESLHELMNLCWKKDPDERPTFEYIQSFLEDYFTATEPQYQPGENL
# Protocol: as §1
# T1 sequence (P30530 26-894): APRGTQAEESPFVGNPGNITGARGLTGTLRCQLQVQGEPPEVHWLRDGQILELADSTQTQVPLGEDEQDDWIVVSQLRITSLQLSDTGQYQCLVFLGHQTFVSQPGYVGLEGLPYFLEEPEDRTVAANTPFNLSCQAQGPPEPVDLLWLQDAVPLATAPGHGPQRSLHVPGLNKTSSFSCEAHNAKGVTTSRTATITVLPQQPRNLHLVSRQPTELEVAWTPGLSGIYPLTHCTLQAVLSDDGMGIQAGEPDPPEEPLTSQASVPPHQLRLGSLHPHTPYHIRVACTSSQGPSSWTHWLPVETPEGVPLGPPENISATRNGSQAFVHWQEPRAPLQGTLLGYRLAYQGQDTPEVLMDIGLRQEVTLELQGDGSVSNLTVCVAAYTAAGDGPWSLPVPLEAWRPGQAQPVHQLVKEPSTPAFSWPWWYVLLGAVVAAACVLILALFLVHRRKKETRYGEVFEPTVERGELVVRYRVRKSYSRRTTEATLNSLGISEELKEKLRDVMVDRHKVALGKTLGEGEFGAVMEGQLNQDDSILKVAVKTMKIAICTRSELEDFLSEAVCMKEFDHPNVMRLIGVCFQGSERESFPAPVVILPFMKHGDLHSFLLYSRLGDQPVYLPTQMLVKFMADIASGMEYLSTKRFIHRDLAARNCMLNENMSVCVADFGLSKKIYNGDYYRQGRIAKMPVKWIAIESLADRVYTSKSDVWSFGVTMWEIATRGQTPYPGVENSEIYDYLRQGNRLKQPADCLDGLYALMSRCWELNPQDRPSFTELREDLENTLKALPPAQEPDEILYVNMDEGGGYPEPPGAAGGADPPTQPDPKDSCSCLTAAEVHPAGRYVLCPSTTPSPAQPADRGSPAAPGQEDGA
smiles,measurement,setting,value
"N[C@H]1CC[C@H](Nc2cc(-c3cccc(NCc4cccc(F)c4)n3)c(Cl)cn2)CC1 [i-CDK9, N2′-(trans-4-aminocyclohexyl)-5′-chloro-N6-(3-fluorobenzyl)-2,4′-bipyridine-2′,6-diamine]",IC50,[1],> 10 µM
same,IC50,[2],1.07 µM
same,IC50,[3],> 10 µM
same,IC50,[4],> 10 µM
same,IC50,[5],> 10 µM
same,IC50,[6],> 10 µM
same,IC50,[7],> 10 µM
same,IC50,[8],1.08 µM
same,IC50,[9],> 10 µM

# Reference: paper PMC4490784, “Compensatory induction of MYC expression by sustained CDK9 inhibition via a BRD4-dependent mechanism” (eLife, 2015)
